The values below come from patent publication US20170291905A1, “ARGININE […] INHIBITORS AND USES THEREOF” (Epizyme, Inc., priority 2014, published 2017).

Where a name gives a salt, the structure may show the parent alone.

Chain of full-length human PRMT8 isoform 1 (Q9NR22 whole entry, canonical isoform): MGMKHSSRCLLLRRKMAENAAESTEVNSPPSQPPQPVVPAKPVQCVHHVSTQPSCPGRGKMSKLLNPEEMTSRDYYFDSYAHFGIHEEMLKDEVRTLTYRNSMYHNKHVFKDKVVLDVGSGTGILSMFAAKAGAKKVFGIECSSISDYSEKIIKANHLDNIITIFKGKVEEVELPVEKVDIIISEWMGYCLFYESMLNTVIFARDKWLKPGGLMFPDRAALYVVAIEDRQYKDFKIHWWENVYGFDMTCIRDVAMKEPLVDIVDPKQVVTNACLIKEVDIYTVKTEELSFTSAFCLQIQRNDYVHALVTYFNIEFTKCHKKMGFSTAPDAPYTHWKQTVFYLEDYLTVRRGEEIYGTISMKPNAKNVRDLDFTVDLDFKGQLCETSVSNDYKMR

For this experiment, the target named is full-length human PRMT8 isoform 1 (Homo sapiens, UniProt Q9NR22). The experiment is described as follows: PRMT8 biochemical assay (3H-SAM Flashplate, histone H4 31-45 peptide). To be noted: 1.5 nM PRMT8, 30 min preincubation, 150 nM peptide. From the text:
S-adenosylmethionine (SAM), S-adenosylhomocysteine (SAH), bicine, Tween20, dimethylsulfoxide (DMSO), bovine skin gelatin (BSG), isopropyl-β-D-thiogalactopyranoside (IPTG), and Tris(2-carboxyethyl)phosphine hydrochloride solution (TCEP) were purchased from Sigma-Aldrich at the highest level of purity possible. ^3H-SAM was purchase from American Radiolabeled Chemicals with a specific activity of 80 Ci/mmol. 384-well streptavidin Flashplates were purchased from PerkinElmer.
Peptide representative of human histone H4 residues 31-45 was synthesized with an N-terminal linker-affinity tag motif and a C-terminal amide cap by 21st Century Biochemicals. The peptide was purified by high-performance liquid chromatography (HPLC) to greater than 95% purity and confirmed by liquid chromatography mass spectrometry (LC-MS). The sequence was Biot-Ahx-[…]-amide (SEQ ID NO.:8).
The resulting construct encodes an N-terminal GST tag and a thrombin cleavage sequence
E. coli (BL21(DE3) Gold, Stratagene) made competent by the CaCl2 method were transformed with the PRMT8 construct and ampicillin selection. Protein over-expression was accomplished by growing the PRMT8 expressing E. coli clone and inducing expression with 0.3 mM IPTG at 16° C. The culture was grown for 12 hours, harvested by centrifugation, and stored at −80° C. for purification.
GST-tagged PRMT8 was eluted with 50 mM Tris, 2 mM glutathione, pH 7.8. Pooled fractions were cleaved by thrombin (10U) and dialysed in buffer A. GST was removed by reloading the cleaved protein sample onto glutathione sepharose column and PRMT8 was collected in the flow-through fractions. PRMT8 was purified further by ceramic hydroxyapatite chromatography. The column was washed with 50 mM phosphate buffer, 100 mM NaCl, 5% glycerol, 5 mM […], pH 7.8 and PRMT8 was eluted by 100 mM phosphate in the same buffer. Protein was concentrated and buffer was exchanged to 50 mM Tris, 300 mM NaCl, 10% glycerol, 5 mM β-mercaptoethanol, pH 7.8 by ultrafiltration. The purity of recovered protein was 89%.
General Procedure for PRMT8 Enzyme Assays on Peptide Substrates.
The assays were all performed in a buffer consisting of 20 mM Bicine (pH=7.6), 1 mM TCEP, 0.005% BSG, and 0.002% Tween 20, prepared on the day of use. Compounds in 100% DMSO (1 ul) were spotted into a polypropylene 384-well V-bottom plates (Greiner) using a Platemate Plus outfitted with a 384-channel head (Thermo Scientific). DMSO (1 ul) was added to Columns 11, 12, 23, 24, rows A-H for the maximum signal control and 1 ul of SAH, a known product and inhibitor of PRMT8, was added to columns 11, 12, 23, 24, rows I-P for the minimum signal control. A cocktail (40 ul) containing the PRMT8 enzyme was added by Multidrop Combi (Thermo-Fisher). The compounds were allowed to incubate with PRMT8 for 30 min at room temperature, then a cocktail (10 ul) containing ^3H-SAM and peptide was added to initiate the reaction (final volume=51 ul). The final concentrations of the components were as follows: PRMT8 was 1.5 nM, ^3H-SAM was 50 nM, non-radiolabeled SAM was 550 nM, peptide was 150 nM, SAH in the minimum signal control wells was 1 mM, and the DMSO concentration was 2%. The assays were stopped by the addition of non-radiolabeled SAM (10 ul) to a final concentration of 400 uM, which dilutes the ^3H-SAM to a level where its incorporation into the peptide substrate is no longer detectable. 50 ul of the reaction in the 384-well polypropylene plate was then transferred to a 384-well Flashplate and the biotinylated peptides were allowed to bind to the streptavidin surface for at least 1 hour before being washed once with 0.1% Tween20 in a Biotek ELx405 plate washer. The plates were then read in a PerkinElmer TopCount plate reader to measure the quantity of ^3H-labeled peptide bound to the Flashplate surface, measured as disintegrations per minute (dpm) or alternatively, referred to as counts per minute (cpm). […]
For orientation: IC50 means the concentration that gives 50% inhibition. A lower IC50 goes with greater potency in that assay. In the case of `CCOCC1(COCC)CCC(c2n[nH]cc2CN(C)CCN)CC1` [compound 123], the IC50 amounted to 9.49 nM.

In turn, `CCOCC1(COCC)CCC(c2nn(C)cc2CN(C)CCN)CC1` [compound 124] registered an IC50 of 25.4 nM.

`CNCCN(C)Cc1c[nH]nc1C1CCC2(CC1)CC(C)(C)OC2=O` (centres unmarked) [compound 125]: 15.7 nM corresponded to half-maximal inhibition (IC50).

Turning to `CNCCN(C)Cc1c[nH]nc1[C@H]1CC[C@@]2(CC1)COC(C)(C)C2` [compound 126, N1-((3-((5r,8r)-3,3-dimethyl-2-oxaspiro[4.5]decan-8-yl)-1H-pyrazol-4-yl)methyl)-N1,N2-dimethylethane-1,2-diamine], the IC50 was 21.3 nM.

As for `CNCCN(C)Cc1c[nH]nc1[C@H]1CC[C@]2(CCCCO2)CC1` [compound 127, methyl([2-[methyl([3-[(6s,9r)-1-oxaspiro[5.5]undecan-9-yl]-1H-pyrazol-4-yl]methyl)amino]ethyl])amine bistrifluoroacetic acid salt], inhibition was half-maximal at 16.2 nM (IC50).
